These results are taken from ChEMBL document CHEMBL1201862, “PubChem BioAssay data set” (2004).

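Test compounds were applied to cells in 96-well plates for 48 hours at 5 doses. GI50 is the concentration that inhibits growth by half.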 Activity calls are given as the source filed them. Cut-off read from the data, not from the text of the source: active = GI50 up to about 1.1 µM and inactive = higher.

Test systems include NCI-H226; Malme-3M; SK-MEL-2; SNB-19; UACC-62; MDA-MB-435; DU-145; MDA-N; K562; SN12C; KM12; BT-549; SF-295; OVCAR-3; NCI-H460; LOX IMVI; Hs-578T; ACHN; CAKI-1.
Holding throughout (assay): inhibition of tumour cell growth, NCI panel, 48 h

In the case of `CCOC(=O)c1c(SCCN2CCOCC2)n(-c2ccccc2)c(=S)n(-c2ccccc2)c1=O`, the GI50 was 38.5 µM (inactive) in the assay with NCI-H226; > 100 µM (inactive) in the assay with Malme-3M; > 100 µM (inactive) in the assay with SK-MEL-2; > 100 µM (inactive) in the assay with SNB-19; 49.8 µM (inactive) in the assay with UACC-62; 47.2 µM (inactive) in the assay with MDA-MB-435. The GI50 was > 10 µM (inactive) with DU-145; 36.5 µM (inactive) in the assay on MDA-N; 19 µM (inactive) in the assay on K562; > 100 µM (inactive) with SN12C; > 100 µM (inactive) with KM12; 39.3 µM (inactive) with BT-549. Moreover, the GI50 in the assay with SF-295 was 25.6 µM (inactive); in the assay on OVCAR-3, 49.2 µM (inactive); with NCI-H460 it was > 100 µM (inactive); with LOX IMVI, 18.5 µM (inactive); in the assay with Hs-578T, 37.8 µM (inactive); in the assay on ACHN, > 100 µM (inactive).

On to `CC(=O)OC1CCn2c1nc1c2C(=O)C=C(N2CC2)C1=O` (centres undefined), for which the GI50 in the assay on NCI-H226 was 1.86 µM (inactive); in the assay with Malme-3M it was 0.0311 µM (active); with SK-MEL-2 it was 0.2 µM (active); in the assay on SNB-19 it was 2.88 µM (inactive); with UACC-62, 0.0697 µM (active); with MDA-MB-435, 0.476 µM (active). The GI50 is 3.31 µM (inactive) with DU-145; 0.032 µM (active) in the assay on CAKI-1; 0.332 µM (active) in the assay on MDA-N; 0.394 µM (active) in the assay with K562; 0.65 µM (active) with SN12C; 1.27 µM (inactive) with BT-549. Besides, the GI50 with SF-295 was 1.81 µM (inactive); in the assay with OVCAR-3 it was 0.215 µM (active); in the assay with NCI-H460, 1.15 µM (inactive); in the assay with LOX IMVI, 0.0719 µM (active); with Hs-578T it was 0.524 µM (active); in the assay with ACHN, 0.0354 µM (active).

Consider `Cc1ccc2c3c1O[C@H]1c4[nH]c5ccccc5c4C[C@@]4(O)[C@@H](C2)N(C)CC[C@]314`, for which the GI50 in the assay on NCI-H226 is 9.04 µM (inactive); with Malme-3M, 13.9 µM (inactive); with SK-MEL-2, 20.7 µM (inactive); in the assay on SNB-19, 17.9 µM (inactive); in the assay on UACC-62, 16.6 µM (inactive); in the assay on MDA-MB-435 it was 14.5 µM (inactive). Further, the GI50 in the assay on DU-145 was 19.8 µM (inactive); in the assay with CAKI-1, 17.3 µM (inactive); in the assay with MDA-N, 17.8 µM (inactive); in the assay on K562, 16.9 µM (inactive); with SN12C, 18.2 µM (inactive); with KM12, 16.9 µM (inactive). Moreover, the GI50 with BT-549 is 16.4 µM (inactive); in the assay on LOX IMVI, 15.4 µM (inactive); in the assay on Hs-578T, 0.474 µM (active); in the assay on ACHN, 15.9 µM (inactive).

For `Clc1ccc(C2=NN=C3C(c4ccccc4)=Nc4ccccc4N3C2)cc1`, the GI50 in the assay on NCI-H226 is 6.52 µM (inactive); with Malme-3M, 5.45 µM (inactive); with SK-MEL-2, 17.7 µM (inactive); in the assay on SNB-19 it was 11.7 µM (inactive); with UACC-62 it was 5.3 µM (inactive); with MDA-MB-435, 4.72 µM (inactive). For the same molecule, the GI50 with DU-145 was 1.91 µM (inactive); in the assay with CAKI-1, 7.19 µM (inactive); in the assay with MDA-N, 7.03 µM (inactive); in the assay with K562, 2.88 µM (inactive); with SN12C, 20.9 µM (inactive); with KM12 it was 6.82 µM (inactive). The GI50 in the assay on BT-549 is 12.1 µM (inactive); in the assay on SF-295, 11.1 µM (inactive); in the assay with OVCAR-3, 2.02 µM (inactive); in the assay with NCI-H460, 1.38 µM (inactive); in the assay on LOX IMVI, 3.76 µM (inactive); in the assay with Hs-578T, 2.09 µM (inactive). Further, the GI50 in the assay with ACHN was 7.06 µM (inactive).

Turning to `CC(=O)OC12CC(C(F)(F)F)(C(F)(F)F)OC1(OC(C)=O)CC(C(F)(F)F)(C(F)(F)F)O2` (centres undefined), the GI50 in the assay with NCI-H226 is 6.17 µM (inactive); with Malme-3M, 4.86 µM (inactive); with SK-MEL-2 it was 5.75 µM (inactive); in the assay with SNB-19, 3.15 µM (inactive); in the assay with UACC-62, 2.66 µM (inactive); with MDA-MB-435, 2.13 µM (inactive). Further, the GI50 in the assay on DU-145 is 4.06 µM (inactive); with MDA-N, 5.92 µM (inactive); in the assay on K562 it was 0.612 µM (active); with SN12C, 4.66 µM (inactive); in the assay with KM12, 2.33 µM (inactive); in the assay on BT-549 it was 5.42 µM (inactive). Also, the GI50 is 6.76 µM (inactive) in the assay with SF-295; 2.02 µM (inactive) with OVCAR-3; 4.05 µM (inactive) in the assay with NCI-H460; 1.73 µM (inactive) with LOX IMVI; 13.3 µM (inactive) in the assay with Hs-578T; 0.287 µM (active) in the assay on ACHN.

Consider `C#CCOC(=O)C(N)CCSC` (centres undefined), for which the GI50 with NCI-H226, in the assay on Malme-3M, with SK-MEL-2, in the assay with UACC-62, in the assay on MDA-MB-435 and in the assay with DU-145 was > 100 µM (inactive) throughout. Moreover, the GI50 with CAKI-1, with MDA-N, with SN12C, with KM12, in the assay on BT-549 and with SF-295 was > 100 µM (inactive) in each case. For the same molecule, the GI50 with OVCAR-3, with LOX IMVI, in the assay on Hs-578T and in the assay on ACHN was > 100 µM (inactive) throughout.

Regarding `c1ccc2c(c1)cc1ccc3cccc4ccc2c1c34`, the GI50 is > 100 µM (inactive) with NCI-H226; > 100 µM (inactive) with SK-MEL-2; 81.1 µM (inactive) in the assay on SNB-19; 67.9 µM (inactive) with UACC-62; > 100 µM (inactive) in the assay with MDA-MB-435; > 100 µM (inactive) in the assay with DU-145. Also, the GI50 is > 100 µM (inactive) with CAKI-1; > 100 µM (inactive) in the assay on MDA-N; > 100 µM (inactive) with K562; > 100 µM (inactive) with SN12C; 26.2 µM (inactive) in the assay with KM12; > 100 µM (inactive) in the assay with BT-549. Besides, the GI50 in the assay on SF-295, with OVCAR-3, in the assay with NCI-H460, in the assay on LOX IMVI, with Hs-578T and in the assay on ACHN was > 100 µM (inactive) in each case.

As for `O=C1C=C2CC[C@H]3[C@@H]4CC[C@H](OC(=O)c5cccc6cc7ccccc7nc56)[C@H]4CC[C@@H]3[C@H]2CC1`, the GI50 in the assay with NCI-H226, in the assay on Malme-3M, in the assay on SK-MEL-2, with SNB-19, in the assay with UACC-62 and in the assay on MDA-MB-435 was > 100 µM (inactive) in each case. The GI50 in the assay with DU-145 is > 100 µM (inactive); in the assay on MDA-N, > 100 µM (inactive); with K562 it was 40.1 µM (inactive); in the assay with SN12C, > 100 µM (inactive); in the assay on KM12, > 100 µM (inactive); in the assay on BT-549, > 100 µM (inactive). The GI50 is > 100 µM (inactive) in the assay with SF-295; 39.5 µM (inactive) in the assay with OVCAR-3; 15.9 µM (inactive) in the assay on LOX IMVI; > 100 µM (inactive) with Hs-578T; > 100 µM (inactive) with ACHN.

As for `Nc1n[n+]([O-])c2cnccc2[n+]1[O-]`, the GI50 with NCI-H226 was > 100 µM (inactive); in the assay with Malme-3M, > 10 µM (inactive); in the assay with SK-MEL-2, > 100 µM (inactive); with SNB-19 it was > 100 µM (inactive); in the assay on UACC-62, 30.1 µM (inactive); with MDA-MB-435, 21.4 µM (inactive). Moreover, the GI50 in the assay with DU-145 was > 100 µM (inactive); in the assay on CAKI-1, > 100 µM (inactive); in the assay on MDA-N, 20.7 µM (inactive); in the assay on SN12C, 44.2 µM (inactive); with KM12, 58.7 µM (inactive); in the assay with BT-549, 45.2 µM (inactive). The GI50 is 45.6 µM (inactive) in the assay on SF-295; 35.4 µM (inactive) in the assay with OVCAR-3; 34.8 µM (inactive) in the assay on NCI-H460; 52.2 µM (inactive) with LOX IMVI; > 100 µM (inactive) in the assay with Hs-578T; 50.9 µM (inactive) in the assay on ACHN.

`CCOC(=O)c1[nH]c2cccc3c2c1CC[C@H](NC(=O)C(F)(F)F)C3=O`: the GI50 is > 100 µM (inactive) in the assay with NCI-H226; > 100 µM (inactive) in the assay with Malme-3M; 20 µM (inactive) in the assay with SK-MEL-2; 15.8 µM (inactive) in the assay on SNB-19; 45.1 µM (inactive) with MDA-MB-435; > 100 µM (inactive) with DU-145. In addition, the GI50 was 13.9 µM (inactive) with CAKI-1; 34.5 µM (inactive) with MDA-N; 45.8 µM (inactive) in the assay on K562; 40.3 µM (inactive) in the assay on SN12C; 61.8 µM (inactive) in the assay on KM12; 40.4 µM (inactive) with BT-549. In addition, the GI50 is 22.3 µM (inactive) in the assay with SF-295; > 100 µM (inactive) in the assay on OVCAR-3; 53.6 µM (inactive) in the assay on NCI-H460; 78 µM (inactive) in the assay on LOX IMVI; 19.5 µM (inactive) in the assay on Hs-578T; < 0.01 µM (active) in the assay on ACHN.

Take `Cc1[nH]c2ncn(/N=C/c3ccccc3)c(=N)c2c1Cc1ccccc1`: the GI50 was 95.5 µM (inactive) with NCI-H226; 87.1 µM (inactive) with SK-MEL-2; > 100 µM (inactive) with SNB-19; 58.9 µM (inactive) in the assay on UACC-62; 84.1 µM (inactive) with MDA-MB-435; > 100 µM (inactive) in the assay with DU-145. Further, the GI50 in the assay with CAKI-1 is > 100 µM (inactive); with MDA-N, 55.1 µM (inactive); with K562 it was > 100 µM (inactive); in the assay with SN12C it was > 100 µM (inactive); in the assay on KM12, 75.7 µM (inactive); in the assay on BT-549 it was > 100 µM (inactive). Moreover, the GI50 is > 100 µM (inactive) in the assay on SF-295; > 100 µM (inactive) in the assay with OVCAR-3; > 100 µM (inactive) in the assay on NCI-H460; 89.9 µM (inactive) in the assay on LOX IMVI; > 100 µM (inactive) in the assay with Hs-578T; > 100 µM (inactive) in the assay with ACHN.
